{
  "source": "patent US20210163593A1",
  "about": "“TREATMENT OF MONOGENIC DISEASES WITH AN ANTI-CD45RC ANTIBODY” (INSERM (INSTITUT NATIONAL DE LA SANTÉ ET DE LA RECHERCHE …, priority 2017, published 2021)",
  "format_in_all_cases": "in vivo, rat",
  "key": {"[1]": {"test_system": "T CD8^+ CD45RC^high cells", "assay": "Flow cytometry of T cell subsets in muscle and spleen of WT and Dmd^mdx rats after treatment", "experimental": "Muscles of both hind limbs from WT or Dmd^mdx rats were excised and weighed. Muscles were minced and placed in gentle MACS C tubes with collagenase D in the presence of FCS 2%, 1 mM EDTA. Two runs of 30 minutes each in a gentle MACS dissociator were performed with new collagenase added between each run. Cells were suspended in 30 mL of PBS FCS 2%, 1 mM EDTA, were then applied to 15 mL of Hystopaque and centrifuged at 1000 g for 30 minutes without a break. Mononuclear cells were collected from the Hystopaque and PBS interface, washed and suspended in PBS FCS 2%, 1 mM EDTA.\nSpleen was harvested, perfused with PBS and digested by collagenase D for 15 minutes at 37° C. Cells were suspended in PBS FCS 2%, 1 mM EDTA and mononuclear cells were recovered as explained above.\nMononuclear cells were stained with antibodies against the following antigens: CD45 (clone OX-1), T-cell receptor (TCR; clone R7/3), CD45RC (clone OX22), CD8 (clone OX8) and CD4 (W3/25), as well as with viability dyes eFluor506 or eFluor450, all from eBiosciences. Analysis was performed on a BD FACS Verse with FACSuite Software version 1.0.6. Post-acquisition analysis was performed with FlowJo software.\n(§1) Wild-type (WT) or Dmd^mdx (KO) rats received intraperitoneal injections of a mouse anti-rat CD45RC monoclonal antibody (clone OX22, 2 mg/kg, every 3.5 days) from week 2 of age up to week 12.\n(§2) Prednisolone was administered by intraperitoneal injections (0.5 mg/kg, 5 days a week) from week 2 of age up to week 12."}, "Dmd^mdx rats": {"test_system": "Dmd^mdx rats", "assay": "Grip test of forelimb muscle strength in Dmd^mdx rats", "details": "ip from week 2 of age, tested at 12 weeks", "experimental": "as §1, §2\nAt week 12 of age treated rats were analyzed for muscle strength using a grip test.\nRats were placed with their forepaws on a grid and were gently pulled backward until they released their grip. A grip meter (Bio-GT3, BIOSEB, France), attached to a force transducer, measured the peak force generated.\nTo examine whether muscle function was improved by the anti-CD45RC monoclonal antibody treatment, muscle strength was analyzed by a grip test of forelimbs in WT and Dmd^mdx rats at 12 weeks of age after initiation of treatment at 2 weeks of age."}, "[2]": {"assay": "Weight / animal growth of Dmd^mdx rats during treatment", "details": "ip from week 2 up to week 12 of age", "experimental": "FIG. 6 is a set of two graphs showing the weight of wild-type or Dmd^mdx rats during treatment using prednisolone or anti-CD45RC monoclonal antibody. Control littermate wild-type (WT) or Dmd^mdx (KO) rats received intraperitoneal injections of prednisolone or anti-CD45RC monoclonal antibody (OX22) from week 2 up to week 12 of age and weight was recorded at the indicated time points.\nas §1, §2"}},
  "data": [
    {"smiles": "C[C@]12C=CC(=O)C=C1CC[C@@H]1[C@@H]2[C@@H](O)C[C@@]2(C)[C@H]1CC[C@]2(O)C(=O)CO", "note": "[prednisolone]", "values": [
      {"measurement": "T CD8^+ CD45RC^high cells", "setting": "[1]; ip from week 2 of age, analyzed at 12 weeks, muscle of Dmd^mdx rats and spleen of WT and Dmd^mdx rats", "result": "specific decrease"},
      {"measurement": "CD4^+CD45RC^high cells", "setting": "[1]; muscle and spleen of Dmd^mdx rats and spleen of WT rats, data not shown", "result": "numerically reduced"},
      {"measurement": "CD8^+CD45RC^int/neg cells", "setting": "[1]; muscle and spleen of Dmd^mdx rats and spleen of WT rats, week 12", "result": "maintained"},
      {"measurement": "muscle strength (grip test) in treated Dmd^mdx rats compared with WT littermate controls", "setting": "Dmd^mdx rats", "result": "levels identical to those of WT"},
      {"measurement": "muscle strength (grip test) in treated vs. untreated Dmd^mdx rats", "setting": "Dmd^mdx rats", "result": "increased"},
      {"measurement": "animal growth (weight)", "setting": "[2]", "result": "severe reduction"}
    ]}
  ]
}
